# Patent US20120108585A1, “BENZOXAZOLES, BENZTHIAZOLES AND RELATED ANALOGS AS SIRTUIN MODULATORS” (Sirtris Pharmaceuticals, Inc., priority 2008, published 2012)
# Target: T1, SIRT1 (Homo sapiens, UniProt Q96EB6)
# T1 sequence (Q96EB6 1-747): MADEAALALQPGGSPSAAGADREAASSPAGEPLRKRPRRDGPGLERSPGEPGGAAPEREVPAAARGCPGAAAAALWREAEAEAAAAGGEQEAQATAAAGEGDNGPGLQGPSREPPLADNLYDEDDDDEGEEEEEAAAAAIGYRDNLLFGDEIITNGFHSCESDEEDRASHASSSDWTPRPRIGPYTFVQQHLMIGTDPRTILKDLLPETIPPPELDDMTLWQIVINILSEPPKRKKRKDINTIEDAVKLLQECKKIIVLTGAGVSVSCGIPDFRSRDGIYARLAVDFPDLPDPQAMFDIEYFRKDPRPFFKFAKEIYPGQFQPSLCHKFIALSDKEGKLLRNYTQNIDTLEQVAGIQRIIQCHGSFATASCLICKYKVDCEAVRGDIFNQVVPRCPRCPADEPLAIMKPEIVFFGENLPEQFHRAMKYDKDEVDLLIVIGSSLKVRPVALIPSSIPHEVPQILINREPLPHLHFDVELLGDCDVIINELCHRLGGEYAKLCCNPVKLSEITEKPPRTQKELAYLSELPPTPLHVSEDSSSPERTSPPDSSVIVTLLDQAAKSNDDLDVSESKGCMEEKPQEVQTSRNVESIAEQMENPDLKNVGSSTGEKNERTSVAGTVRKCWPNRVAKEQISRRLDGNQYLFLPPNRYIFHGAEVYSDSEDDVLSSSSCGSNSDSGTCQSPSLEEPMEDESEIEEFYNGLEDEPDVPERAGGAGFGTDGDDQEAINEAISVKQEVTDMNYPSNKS
# Experiment: mass spectrometry based assay to identify modulators of SIRT1 activity (deacetylation of p53-based acetylated peptide)
# Format: biochemical
# Settings: 25 min; SIRT1 activation; 10 nM SIRT1, 0.5 μM peptide substrate, 120 μM βNAD+, 25 minutes at 25° C.; read-out: % Fold Act. (percent maximum fold activation)
# Description: A mass spectrometry based assay was used to identify modulators of SIRT1 activity. The mass spectrometry based assay utilizes a peptide having 20 amino acid residues as follows: Ac-EE-K(biotin)-GQSTSSHSK(Ac)NleSTEG-K(5TMR)-EE-NH2 (SEQ ID NO: 1) wherein K(Ac) is an acetylated lysine residue and Nle is a norleucine. The peptide is labeled with the fluorophore 5TMR (excitation 540 nm/emission 580 nm) at the C-terminus. The sequence of the peptide substrate is based on p53 with several modifications. In addition, the methionine residue naturally present in the sequence was replaced with the norleucine because the methionine may be susceptible to oxidation during synthesis and purification.
# The mass spectrometry assay is conducted as follows: 0.5 μM peptide substrate and 120 μM βNAD^+ is incubated with 10 nM SIRT1 for 25 minutes at 25° C. in a reaction buffer (50 mM Tris-acetate pH 8, 137 mM NaCl, 2.7 mM KCl, 1 mM MgCl2, 5 mM DTT, 0.05% BSA). Test compounds may be added to the reaction as described above. The SirT1 gene is cloned into a T7-promoter containing vector and transformed into BL21(DE3). After the 25 minute incubation with SIRT1, 10 μL of 10% formic acid is added to stop the reaction. Reactions are sealed and frozen for later mass spec analysis. Determination of the mass of the substrate peptide allows for precise determination of the degree of acetylation (i.e. starting material) as compared to deacetylated peptide (product).
# A control for inhibition of sirtuin activity is conducted by adding 1 μL of 500 mM nicotinamide as a negative control at the start of the reaction (e.g., permits determination of maximum sirtuin inhibition). A control for activation of sirtuin activity is conducted using 10 nM of sirtuin protein, with 1 μL of DMSO in place of compound, to determine the amount of deacetylation of the substrate at a given timepoint within the linear range of the assay. This timepoint is the same as that used for test compounds and, within the linear range, the endpoint represents a change in velocity.
# For the above assay, SIRT1 protein was expressed and purified as follows. The SirT1 gene was cloned into a T7-promoter containing vector and transformed into BL21(DE3). The protein was expressed by induction with 1 mM IPTG as an N-terminal His-tag fusion protein at 18° C. overnight and harvested at 30,000×g. Cells were lysed with lysozyme in lysis buffer (50 mM Tris-HCl, 2 mM Tris[2-carboxyethyl]phosphine (TCEP), 10 μM ZnCl2, 200 mM NaCl) and further treated with sonication for 10 min for complete lysis. The protein was purified over a Ni-NTA column (Amersham) and fractions containing pure protein were pooled, concentrated and run over a sizing column (Sephadex S200 26/60 global). The peak containing soluble protein was collected and run on an Ion-exchange column (MonoQ). Gradient elution (200 mM-500 mM NaCl) yielded pure protein. This protein was concentrated and dialyzed against dialysis buffer (20 mM Tris-HCl, 2 mM TCEP) overnight. The protein was aliquoted and frozen at −80° C. until further use.
# Sirtuin modulating compounds that activated SIRT1 were identified using the assay described above and are shown below in Table 1. The EC1-5 values for the activating compounds are represented by A (EC1-5<1.0 uM), B (EC1-5 1-25 uM), C (EC1-5>25 uM). The percent maximum fold activation is represented by A (Fold activation>150%) or B (Fold Activation<150%).
row,SMILES,Emax [%]
1,O=C(Nc1nccs1)c1cccc2sc(-c3cccc(N4CCOCC4)c3)nc12 [Compound 125],< 150
2,O=C(Nc1ccccn1)c1cccc2sc(-c3cccc(N4CCOCC4)c3)nc12 [Compound 126],< 150
3,O=C(Nc1cccnc1)c1cccc2sc(-c3cccc(N4CCOCC4)c3)nc12 [Compound 127],< 150
4,O=C(Nc1nccs1)c1cccc2sc(-c3cccnc3)nc12 [Compound 128],< 150
5,O=C(Nc1ccccn1)c1cccc2sc(-c3cccnc3)nc12 [Compound 129],< 150
6,O=C(Nc1nccs1)c1cccc2nc(-c3ccc(F)cc3C(F)(F)F)oc12 [Compound 130],< 150
7,O=C(Nc1ccccn1)c1cccc2nc(-c3ccc(F)cc3C(F)(F)F)oc12 [Compound 131],> 150
8,O=C(Nc1nc(CN2CCOCC2)cs1)c1cccc2nc(-c3ccc(F)cc3C(F)(F)F)oc12 [Compound 132],> 150
9,O=C(Nc1cccc(CN2CCOCC2)n1)c1cccc2nc(-c3ccc(F)cc3C(F)(F)F)oc12 [Compound 133],> 150
10,O=C(Nc1ccccn1)c1cccc2nc(-c3cc(F)ccc3C(F)(F)F)oc12 [Compound 134],< 150
11,O=C(Nc1nc(CN2CCOCC2)cs1)c1cccc2nc(-c3cc(F)ccc3C(F)(F)F)oc12 [Compound 135],> 150
12,O=C(Nc1cccc(CN2CCOCC2)n1)c1cccc2nc(-c3cc(F)ccc3C(F)(F)F)oc12 [Compound 136],> 150
13,"O=C(Nc1nccs1)c1cccc2oc(-c3ccccc3C(F)(F)F)nc12 [Compound 137, N-(thiazol-2-yl)-2-(2-(trifluoromethyl)phenyl)benzo[d]oxazole-4-carboxamide]",> 150
14,O=C(Nc1ccccn1)c1cccc2oc(-c3ccccc3C(F)(F)F)nc12 [Compound 138],> 150
15,O=C(Nc1nc(CN2CCOCC2)cs1)c1cccc2oc(-c3ccccc3C(F)(F)F)nc12 [Compound 139],> 150
16,O=C(Nc1cccc(CN2CCOCC2)n1)c1cccc2oc(-c3ccccc3C(F)(F)F)nc12 [Compound 140],> 150
17,O=C(Nc1nccs1)c1cccc2oc(-c3ccccc3OC(F)(F)F)nc12 [Compound 141],> 150
18,O=C(Nc1ccccn1)c1cccc2oc(-c3ccccc3OC(F)(F)F)nc12 [Compound 142],> 150
19,O=C(Nc1nccs1)c1cccc2oc(-c3ccc(F)cc3C(F)(F)F)nc12 [Compound 143],< 150
20,O=C(Nc1ccccn1)c1cccc2oc(-c3ccc(F)cc3C(F)(F)F)nc12 [Compound 144],< 150
21,O=C(Nc1nc(CN2CCOCC2)cs1)c1cccc2oc(-c3ccc(F)cc3C(F)(F)F)nc12 [Compound 145],> 150
22,O=C(Nc1cccc(CN2CCOCC2)n1)c1cccc2oc(-c3ccc(F)cc3C(F)(F)F)nc12 [Compound 146],> 150
23,O=C(Nc1nccs1)c1cccc2oc(-c3cc(F)ccc3C(F)(F)F)nc12 [Compound 147],< 150
24,O=C(Nc1ccccn1)c1cccc2oc(-c3cc(F)ccc3C(F)(F)F)nc12 [Compound 148],< 150
25,O=C(Nc1nc(CN2CCOCC2)cs1)c1cccc2oc(-c3cc(F)ccc3C(F)(F)F)nc12 [Compound 149],> 150
26,O=C(Nc1cccc(CN2CCOCC2)n1)c1cccc2oc(-c3cc(F)ccc3C(F)(F)F)nc12 [Compound 150],> 150
27,O=C(Nc1cccc(N2CCOCC2)n1)c1cccc2sc(-c3cccc(C(F)(F)F)c3)nc12 [Compound 151],< 150
28,O=C(Nc1cccc(N2CCCC2)n1)c1cccc2sc(-c3cccc(C(F)(F)F)c3)nc12 [Compound 153],> 150
29,O=C(Nc1ccnc(N2CCCC2)c1)c1cccc2sc(-c3cccc(C(F)(F)F)c3)nc12 [Compound 154],> 150

# Same assay, conditions: SIRT1 activation; 10 nM SIRT1, 0.5 μM peptide substrate, 120 μM βNAD+, 25 minutes at 25° C.
row,SMILES,EC1.5
1,O=C(Nc1nccs1)c1cccc2sc(-c3cccc(N4CCOCC4)c3)nc12 [Compound 125],C (EC1-5>25 uM)
2,O=C(Nc1ccccn1)c1cccc2sc(-c3cccc(N4CCOCC4)c3)nc12 [Compound 126],C (EC1-5>25 uM)
3,O=C(Nc1cccnc1)c1cccc2sc(-c3cccc(N4CCOCC4)c3)nc12 [Compound 127],C (EC1-5>25 uM)
4,O=C(Nc1nccs1)c1cccc2sc(-c3cccnc3)nc12 [Compound 128],C (EC1-5>25 uM)
5,O=C(Nc1ccccn1)c1cccc2sc(-c3cccnc3)nc12 [Compound 129],C (EC1-5>25 uM)
6,O=C(Nc1nccs1)c1cccc2nc(-c3ccc(F)cc3C(F)(F)F)oc12 [Compound 130],B (EC1-5 1-25 uM)
7,O=C(Nc1ccccn1)c1cccc2nc(-c3ccc(F)cc3C(F)(F)F)oc12 [Compound 131],B (EC1-5 1-25 uM)
8,O=C(Nc1nc(CN2CCOCC2)cs1)c1cccc2nc(-c3ccc(F)cc3C(F)(F)F)oc12 [Compound 132],B (EC1-5 1-25 uM)
9,O=C(Nc1cccc(CN2CCOCC2)n1)c1cccc2nc(-c3ccc(F)cc3C(F)(F)F)oc12 [Compound 133],B (EC1-5 1-25 uM)
10,O=C(Nc1ccccn1)c1cccc2nc(-c3cc(F)ccc3C(F)(F)F)oc12 [Compound 134],B (EC1-5 1-25 uM)
11,O=C(Nc1nc(CN2CCOCC2)cs1)c1cccc2nc(-c3cc(F)ccc3C(F)(F)F)oc12 [Compound 135],B (EC1-5 1-25 uM)
12,O=C(Nc1cccc(CN2CCOCC2)n1)c1cccc2nc(-c3cc(F)ccc3C(F)(F)F)oc12 [Compound 136],B (EC1-5 1-25 uM)
13,"O=C(Nc1nccs1)c1cccc2oc(-c3ccccc3C(F)(F)F)nc12 [Compound 137, N-(thiazol-2-yl)-2-(2-(trifluoromethyl)phenyl)benzo[d]oxazole-4-carboxamide]",B (EC1-5 1-25 uM)
14,O=C(Nc1ccccn1)c1cccc2oc(-c3ccccc3C(F)(F)F)nc12 [Compound 138],B (EC1-5 1-25 uM)
15,O=C(Nc1nc(CN2CCOCC2)cs1)c1cccc2oc(-c3ccccc3C(F)(F)F)nc12 [Compound 139],A (EC1-5<1.0 uM)
16,O=C(Nc1cccc(CN2CCOCC2)n1)c1cccc2oc(-c3ccccc3C(F)(F)F)nc12 [Compound 140],A (EC1-5<1.0 uM)
17,O=C(Nc1nccs1)c1cccc2oc(-c3ccccc3OC(F)(F)F)nc12 [Compound 141],B (EC1-5 1-25 uM)
18,O=C(Nc1ccccn1)c1cccc2oc(-c3ccccc3OC(F)(F)F)nc12 [Compound 142],B (EC1-5 1-25 uM)
19,O=C(Nc1nccs1)c1cccc2oc(-c3ccc(F)cc3C(F)(F)F)nc12 [Compound 143],B (EC1-5 1-25 uM)
20,O=C(Nc1ccccn1)c1cccc2oc(-c3ccc(F)cc3C(F)(F)F)nc12 [Compound 144],B (EC1-5 1-25 uM)
21,O=C(Nc1nc(CN2CCOCC2)cs1)c1cccc2oc(-c3ccc(F)cc3C(F)(F)F)nc12 [Compound 145],B (EC1-5 1-25 uM)
22,O=C(Nc1cccc(CN2CCOCC2)n1)c1cccc2oc(-c3ccc(F)cc3C(F)(F)F)nc12 [Compound 146],A (EC1-5<1.0 uM)
23,O=C(Nc1nccs1)c1cccc2oc(-c3cc(F)ccc3C(F)(F)F)nc12 [Compound 147],C (EC1-5>25 uM)
24,O=C(Nc1ccccn1)c1cccc2oc(-c3cc(F)ccc3C(F)(F)F)nc12 [Compound 148],C (EC1-5>25 uM)
25,O=C(Nc1nc(CN2CCOCC2)cs1)c1cccc2oc(-c3cc(F)ccc3C(F)(F)F)nc12 [Compound 149],A (EC1-5<1.0 uM)
26,O=C(Nc1cccc(CN2CCOCC2)n1)c1cccc2oc(-c3cc(F)ccc3C(F)(F)F)nc12 [Compound 150],A (EC1-5<1.0 uM)
27,O=C(Nc1cccc(N2CCOCC2)n1)c1cccc2sc(-c3cccc(C(F)(F)F)c3)nc12 [Compound 151],A (EC1-5<1.0 uM)
28,O=C(Nc1cccc(N2CCCC2)n1)c1cccc2sc(-c3cccc(C(F)(F)F)c3)nc12 [Compound 153],B (EC1-5 1-25 uM)
29,O=C(Nc1ccnc(N2CCCC2)c1)c1cccc2sc(-c3cccc(C(F)(F)F)c3)nc12 [Compound 154],A (EC1-5<1.0 uM)
